Test results taken from article PMC9488896, “Hydroxamic Acid-Modified Peptide Library Provides Insights into the Molecular Basis for the Substrate Selectivity of HDAC Corepressor Complexes” (ACS Chemical Biology, 2022).
Read-outs that look alike come from different tables or passages of the source. Residues, ends and D or L forms follow the SMILES beside them.

Legend:
MIER1 complex = target: T1, MIER1 complex (Homo sapiens, UniProt Q13547+Q8N108); assay: Boc-Lys HDAC inhibition assay; assay type: biochemical; settings: HDAC complexes tables; 50 nM complex, 100 μM Boc-(Ac)Lys-AMC, 37 °C 30 min; technical replicates N = 2
T1 construct: made in house; host or cells: HEK293F
Excerpt: (§1) Finally, we directed our attention toward assessing how the results from the experiments with HMR would be common to the other known class I HDAC corepressor complexes. RERE, MIER1, CoREST, HMR, MiDAC, Sin3A, and SMRT were expressed and purified, and the concentrations were normalized based on the concentration of HDAC1 or HDAC3 (Figure 4A). We determined the potency of H3(23–29)K27Hd 12 and H4(12–18)K16Hd 16 against RERE, MIER1, CoREST, NuRD, MiDAC, Sin3A, and SMRT (Figure 4B). In addition, we repeated the H3(23–29)K27Hd alanine scan experiment for each of these complexes to assess whether or not the importance of Lys23 for maintaining potency against HMR was replicated across the other complexes (Figure 4C).
(§2) Inhibition assays with various peptide inhibitors were performed using a fluorescence-based assay. The inhibitor peptides were initially dissolved in 5% dimethyl sulfoxide (DMSO) at a stock concentration of 25 mM before being further diluted in the HDAC assay buffer (50 mM Tris/HCl, pH 7.5, 150 mM NaCl). Serial dilutions (1:3) of the inhibitor were prepared, starting at a concentration of 500 μM. HDAC complexes were diluted to a final concentration of 50 nM and incubated with the inhibitor for 20 min at rt. The Boc-(Ac)Lys-AMC substrate was added at a final concentration of 100 μM The final volume of the reaction was 50 μL. The reaction was incubated at 37 °C, 150 rpm, for 30 min, before a developer (50 mM Tris, pH 7.5, 100 mM NaCl, 10 mg/mL trypsin) was added. The reaction was incubated with the developer for 10 min before being measured (PerkinElmer, 2030 multilabel reader, VICTOR X5, excitation 335 nm, emission 460 nm). The absorbance of the buffer as the blank control was subtracted from the HDAC activity, and IC50 calculations were performed using the nonlinear regression log(inhibitor) vs response equation Y = bottom + (top – bottom)/(1+10^(X–Log IC50)) in Graphpad Prism 9.

MiDAC complex = target: T2, MiDAC complex (Homo sapiens, UniProt Q13547+Q6PJG2+Q9H147); assay: Boc-Lys HDAC inhibition assay; assay type: biochemical; settings: HDAC complexes tables; 50 nM complex, 100 μM Boc-(Ac)Lys-AMC, 37 °C 30 min; technical replicates N = 2
T2 construct: made in house; host or cells: HEK293F
Excerpt: as §1, §2

SMRT complex (HDAC3) = target: T3, SMRT complex (HDAC3) (Homo sapiens, UniProt O15379); assay: Boc-Lys HDAC inhibition assay; assay type: biochemical; settings: HDAC complexes tables; 50 nM complex, 100 μM Boc-(Ac)Lys-AMC, 37 °C 30 min; technical replicates N = 2
T3 construct: made in house; host or cells: HEK293F
Excerpt: as §1, §2

RERE complex = target: T4, RERE complex (Homo sapiens, UniProt Q13547+Q9P2R6); assay: Boc-Lys HDAC inhibition assay; assay type: biochemical; settings: HDAC complexes tables; 50 nM complex, 100 μM Boc-(Ac)Lys-AMC, 37 °C 30 min; technical replicates N = 2
T4 construct: made in house; host or cells: HEK293F
Excerpt: as §1, §2

Sin3A complex = target: T5, Sin3A complex (Homo sapiens, UniProt Q13547); assay: Boc-Lys HDAC inhibition assay; assay type: biochemical; settings: HDAC complexes tables; 50 nM complex, 100 μM Boc-(Ac)Lys-AMC, 37 °C 30 min; technical replicates N = 2
T5 construct: made in house; host or cells: HEK293F
Excerpt: as §1, §2

CoREST complex = target: T6, CoREST complex (Homo sapiens, UniProt Q13547+Q9UKL0); assay: Boc-Lys HDAC inhibition assay; assay type: biochemical; settings: HDAC complexes tables; 50 nM complex, 100 μM Boc-(Ac)Lys-AMC, 37 °C 30 min; technical replicates N = 2
T6 construct: made in house; host or cells: HEK293F
Excerpt: as §1, §2

[1] = target: T7, HDAC1/MTA1(aa: 162–546)/RBBP4 core NuRD complex (HMR) (Homo sapiens, UniProt Q09028+Q13330+Q13547); assay: Boc-Lys HDAC inhibition assay; assay type: biochemical; settings: 50 nM complex, 100 μM Boc-(Ac)Lys-AMC, 37 °C 30 min, technical replicates N = 2
T7 construct: made in house; host or cells: HEK293F
Procedure: as §2

HMR complex = target: T8, HMR complex (Homo sapiens, UniProt Q09028+Q13330+Q13547); assay: Fluorescence polarization binding assay; settings: 10 nM FTU-labeled peptide, increasing HMR, 30 min rt; one-site binding fit; technical replicates N = 2; read-out: KD of Fluorescein-labelled peptides against HMR
T8 construct: made in house; host or cells: HEK293F
Procedure: We aimed first to validate the results of the activity assay with the hydroxamic acid-containing peptides in terms of binding kinetics. To this end, we designed and synthesized fluorescein-labeled analogues (FTU) of the key peptides identified from the inhibition assay: FTU-H3(6−12)K9Hd 17, FTU-H3(23–29)K27Hd 18, FTU-H4(8−14)K12Hd 19, and FTU-H4(12−18)K16Hd 20. […] These peptides were then tested in an FP assay to measure their binding affinity for the HMR complex (Figure 2D).
The fluorescence polarization assay was performed using 96-well black plates (Corning). FTU (10 nM)-labeled peptides (peptides 17–20) were incubated with increasing concentrations of HMR for 30 min at rt. The plate was shaken before being read on a Victor X5 Plate reader (Perkin Elmer). […] values were calculated using the nonlinear regression one-site binding equation Y = Bmax × X/(KD + X) using Graphpad Prism 9.

[2] = alanine scan / H4K12Hd experiments, 20 min preincubation rt, read-out: IC50 of HMR against H3 K27Hd, H4 K16Hd and H4K12Hd peptides

T7 sequence (Q13547 whole entry, species assumed): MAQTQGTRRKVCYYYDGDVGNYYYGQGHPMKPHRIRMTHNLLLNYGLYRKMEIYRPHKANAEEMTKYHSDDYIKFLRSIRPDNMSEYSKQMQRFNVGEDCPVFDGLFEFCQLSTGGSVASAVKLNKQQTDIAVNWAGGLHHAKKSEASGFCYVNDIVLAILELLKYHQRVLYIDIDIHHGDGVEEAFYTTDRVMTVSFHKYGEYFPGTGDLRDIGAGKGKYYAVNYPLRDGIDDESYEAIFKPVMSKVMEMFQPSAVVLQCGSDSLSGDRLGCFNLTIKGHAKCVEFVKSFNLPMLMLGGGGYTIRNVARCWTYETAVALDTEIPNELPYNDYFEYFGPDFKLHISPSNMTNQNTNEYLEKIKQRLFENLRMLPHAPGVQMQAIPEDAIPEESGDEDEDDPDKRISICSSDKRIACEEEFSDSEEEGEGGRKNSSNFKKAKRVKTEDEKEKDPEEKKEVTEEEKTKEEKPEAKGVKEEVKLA
T7 sequence (Q13330 162-546 partner limits assumed, species assumed): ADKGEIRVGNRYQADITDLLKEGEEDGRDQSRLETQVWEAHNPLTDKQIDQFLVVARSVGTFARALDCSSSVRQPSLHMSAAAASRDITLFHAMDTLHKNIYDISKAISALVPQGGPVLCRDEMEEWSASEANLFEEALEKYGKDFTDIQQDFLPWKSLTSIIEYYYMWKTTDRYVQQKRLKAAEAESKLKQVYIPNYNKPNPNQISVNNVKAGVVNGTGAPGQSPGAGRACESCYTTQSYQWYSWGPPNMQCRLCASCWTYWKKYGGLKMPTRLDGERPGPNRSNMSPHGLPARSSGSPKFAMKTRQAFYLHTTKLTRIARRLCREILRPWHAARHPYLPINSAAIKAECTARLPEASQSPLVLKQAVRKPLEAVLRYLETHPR
T7 sequence (Q09028 whole entry partner, species assumed): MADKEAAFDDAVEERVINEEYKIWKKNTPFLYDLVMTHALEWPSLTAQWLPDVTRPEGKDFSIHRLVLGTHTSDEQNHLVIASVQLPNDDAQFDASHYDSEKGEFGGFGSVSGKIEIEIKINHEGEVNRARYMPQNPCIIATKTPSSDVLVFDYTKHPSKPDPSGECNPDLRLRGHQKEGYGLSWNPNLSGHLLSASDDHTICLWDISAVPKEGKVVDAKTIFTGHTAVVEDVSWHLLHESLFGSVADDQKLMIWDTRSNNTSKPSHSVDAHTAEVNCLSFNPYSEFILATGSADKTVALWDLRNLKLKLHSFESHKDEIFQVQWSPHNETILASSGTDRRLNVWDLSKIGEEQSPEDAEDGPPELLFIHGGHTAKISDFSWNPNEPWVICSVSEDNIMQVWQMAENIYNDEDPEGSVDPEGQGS
T1 sequence (Q13547 whole entry): as the sequence (Q13547 whole entry, species assumed) above
T1 sequence (Q8N108 whole entry partner): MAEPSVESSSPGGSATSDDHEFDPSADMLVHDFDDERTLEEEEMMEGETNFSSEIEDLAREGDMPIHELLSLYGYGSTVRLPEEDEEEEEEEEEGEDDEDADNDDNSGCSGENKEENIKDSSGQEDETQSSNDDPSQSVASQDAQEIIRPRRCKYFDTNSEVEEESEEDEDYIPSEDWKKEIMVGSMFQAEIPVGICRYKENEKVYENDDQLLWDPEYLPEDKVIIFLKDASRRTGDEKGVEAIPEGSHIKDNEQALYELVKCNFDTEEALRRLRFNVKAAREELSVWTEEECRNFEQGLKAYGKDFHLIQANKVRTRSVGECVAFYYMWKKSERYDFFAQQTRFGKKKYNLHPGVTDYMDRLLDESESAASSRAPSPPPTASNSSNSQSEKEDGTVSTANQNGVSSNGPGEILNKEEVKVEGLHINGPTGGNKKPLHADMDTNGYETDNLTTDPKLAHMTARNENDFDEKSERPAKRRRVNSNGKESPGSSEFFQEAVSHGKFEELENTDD
T5 sequence (Q13547 whole entry): as the sequence (Q13547 whole entry, species assumed) above
T5 sequence (Q96ST3 whole entry partner): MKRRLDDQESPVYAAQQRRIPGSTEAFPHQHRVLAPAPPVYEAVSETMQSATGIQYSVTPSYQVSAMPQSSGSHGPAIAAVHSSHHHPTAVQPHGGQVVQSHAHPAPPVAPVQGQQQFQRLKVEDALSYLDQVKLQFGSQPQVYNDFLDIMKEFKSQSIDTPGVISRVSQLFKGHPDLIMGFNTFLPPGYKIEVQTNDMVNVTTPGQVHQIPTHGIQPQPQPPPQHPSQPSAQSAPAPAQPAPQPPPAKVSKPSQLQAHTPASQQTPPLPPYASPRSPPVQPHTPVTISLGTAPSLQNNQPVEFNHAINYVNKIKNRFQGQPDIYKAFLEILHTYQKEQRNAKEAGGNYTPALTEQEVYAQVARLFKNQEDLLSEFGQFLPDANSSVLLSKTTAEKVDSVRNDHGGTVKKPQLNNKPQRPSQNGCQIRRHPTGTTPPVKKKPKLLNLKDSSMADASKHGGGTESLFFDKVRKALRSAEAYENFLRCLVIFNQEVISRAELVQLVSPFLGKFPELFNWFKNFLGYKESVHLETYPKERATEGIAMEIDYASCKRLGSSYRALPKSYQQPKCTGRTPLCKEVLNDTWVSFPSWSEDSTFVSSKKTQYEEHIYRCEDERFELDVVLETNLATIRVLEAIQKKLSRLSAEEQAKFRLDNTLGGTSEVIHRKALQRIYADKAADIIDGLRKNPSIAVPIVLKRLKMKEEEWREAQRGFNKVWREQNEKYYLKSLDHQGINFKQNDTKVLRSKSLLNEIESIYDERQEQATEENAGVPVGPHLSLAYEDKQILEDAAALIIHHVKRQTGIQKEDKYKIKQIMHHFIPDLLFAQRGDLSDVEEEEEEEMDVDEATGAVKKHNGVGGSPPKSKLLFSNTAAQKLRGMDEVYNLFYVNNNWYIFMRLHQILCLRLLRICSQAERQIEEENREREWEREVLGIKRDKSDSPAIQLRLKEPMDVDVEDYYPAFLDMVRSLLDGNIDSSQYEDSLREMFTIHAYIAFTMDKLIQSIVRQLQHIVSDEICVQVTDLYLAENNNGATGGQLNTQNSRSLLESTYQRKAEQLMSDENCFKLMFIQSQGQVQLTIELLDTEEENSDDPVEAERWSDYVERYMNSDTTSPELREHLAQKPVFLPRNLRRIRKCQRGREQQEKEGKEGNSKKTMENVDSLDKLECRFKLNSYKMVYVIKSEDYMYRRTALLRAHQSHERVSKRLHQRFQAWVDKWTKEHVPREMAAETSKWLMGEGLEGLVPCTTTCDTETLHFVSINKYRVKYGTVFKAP
T5 sequence (Q09028 whole entry partner): as the sequence (Q09028 whole entry partner, species assumed) above
T5 sequence (Q9HAJ7 whole entry partner): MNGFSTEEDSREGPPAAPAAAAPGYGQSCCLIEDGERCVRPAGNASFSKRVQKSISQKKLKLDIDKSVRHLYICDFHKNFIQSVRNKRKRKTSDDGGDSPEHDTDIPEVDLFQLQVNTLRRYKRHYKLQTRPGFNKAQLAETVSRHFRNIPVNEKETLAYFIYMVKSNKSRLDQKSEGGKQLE
T5 sequence (Q9H7L9 whole entry partner): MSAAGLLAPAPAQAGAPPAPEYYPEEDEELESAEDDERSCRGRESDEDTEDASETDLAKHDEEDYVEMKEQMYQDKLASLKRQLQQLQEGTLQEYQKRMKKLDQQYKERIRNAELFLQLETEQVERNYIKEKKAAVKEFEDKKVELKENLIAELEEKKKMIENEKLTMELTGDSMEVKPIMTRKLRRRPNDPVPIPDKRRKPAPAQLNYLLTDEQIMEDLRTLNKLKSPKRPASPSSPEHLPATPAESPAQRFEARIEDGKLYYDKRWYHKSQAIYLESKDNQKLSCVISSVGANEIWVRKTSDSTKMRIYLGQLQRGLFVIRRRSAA

IC50 (MIER1 complex) [nM]	IC50 (MiDAC complex) [nM]	IC50 (SMRT complex (HDAC3)) [nM]	IC50 (RERE complex) [nM]	IC50 (Sin3A complex) [nM]	IC50 (CoREST complex) [nM]	IC50 [1, 2] [nM]	Kd (HMR complex) [nM]	IC50 ([1]; HDAC complexes tables, read-out: IC50, HMR (NuRD)) [nM]	IC50 ([1]; inhibitor library experiment, 20 min preincubation rt, fluorescence, read-out: IC50 of HMR against histone peptide library) [nM]	Compound
342	480	379	408	272	234	308				CC(=O)N[C@@H](CCCCN)C(=O)N[C@@H](C)C(=O)N[C@@H](C)C(=O)N[C@@H](CCCNC(=N)N)C(=O)N[C@@H](CCCCCC(=O)NO)C(=O)N[C@@H](C)C(=O)N[C@@H](C)C(N)=O [compound 23, H3 (23-29) K27Hd S28A] (HELM PEPTIDE1{[ac].K.A.A.R.[O=C([C@H](CCCCCC(=O)[*:3])N[*:1])[*:2]].A.A.[am]}|CHEM1{[ON[*:1]]}$PEPTIDE1,CHEM1,6:R3-1:R1$$$V2.0)
							288			CC(=O)N[C@@H](CCCCN)C(=O)NCC(=O)N[C@@H](CC(C)C)C(=O)NCC(=O)N[C@@H](CCCCCC(=O)NO)C(=O)NCC(=O)NCC(N)=O [compound 27, H4(8–14)K12Hd] (HELM PEPTIDE1{[ac].K.G.L.G.[O=C([C@H](CCCCCC(=O)[*:3])N[*:1])[*:2]].G.G.[am]}|CHEM1{[ON[*:1]]}$PEPTIDE1,CHEM1,6:R3-1:R1$$$V2.0)
106	151	128	209	145		133	60	50	134	CC(=O)N[C@@H](CCCCN)C(=O)N[C@@H](C)C(=O)N[C@@H](C)C(=O)N[C@@H](CCCNC(=N)N)C(=O)N[C@@H](CCCCCC(=O)NO)C(=O)N[C@@H](CO)C(=O)N[C@@H](C)C(N)=O [compound 12, H3(23–29)K27Hd] (HELM PEPTIDE1{[ac].K.A.A.R.[O=C([C@H](CCCCCC(=O)[*:3])N[*:1])[*:2]].S.A.[am]}|CHEM1{[ON[*:1]]}$PEPTIDE1,CHEM1,6:R3-1:R1$$$V2.0)
